The target in assay [1] is Sodium-dependent serotonin transporter (Rattus norvegicus) (UniProt P31652). In words: Ratio of serotonin transporter potency to that of dopamine transporter potency.
Assay [2] addresses Sodium-dependent dopamine transporter (Rattus norvegicus, UniProt P23977). Nature of the assay: Tested for the ability to displace [125I]- RTI-55 binding in rat striatal membrane against dopamine transporter. The assay is classed as cell membranes, Striatum.
Assay [3] addresses Sodium-dependent serotonin transporter (Rattus norvegicus, UniProt P31652). In words: Tested for the ability to displace [3H]- paroxetine binding in rat frontal cortex membrane against Serotonin transporter. The assay is classed as cell membranes.

What is called IC50 is the concentration that inhibits the measured activity by half. Lower therefore signals higher potency. A word on the Ki: it is the dissociation constant of the complex between target and ligand, obtained from inhibition or displacement.

Sodium-dependent dopamine transporter, sequence (P23977 whole entry): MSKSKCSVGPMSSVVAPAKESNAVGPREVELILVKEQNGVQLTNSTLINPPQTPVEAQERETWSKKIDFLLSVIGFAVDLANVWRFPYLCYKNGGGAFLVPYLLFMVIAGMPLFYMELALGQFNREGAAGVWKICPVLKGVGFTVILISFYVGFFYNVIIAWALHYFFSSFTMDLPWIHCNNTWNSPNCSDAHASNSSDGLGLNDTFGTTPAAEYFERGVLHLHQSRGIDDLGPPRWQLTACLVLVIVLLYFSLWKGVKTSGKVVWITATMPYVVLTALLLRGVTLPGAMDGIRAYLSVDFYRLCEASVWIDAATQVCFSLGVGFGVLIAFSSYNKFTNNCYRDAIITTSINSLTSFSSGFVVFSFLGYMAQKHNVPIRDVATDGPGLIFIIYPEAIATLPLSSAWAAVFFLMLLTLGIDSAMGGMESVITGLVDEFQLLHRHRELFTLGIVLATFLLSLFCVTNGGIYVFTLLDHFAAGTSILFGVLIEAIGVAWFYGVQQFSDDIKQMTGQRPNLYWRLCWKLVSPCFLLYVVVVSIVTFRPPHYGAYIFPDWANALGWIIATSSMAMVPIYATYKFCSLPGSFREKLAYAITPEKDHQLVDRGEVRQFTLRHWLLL
Sodium-dependent serotonin transporter (Rattus norvegicus), sequence (P31652 whole entry): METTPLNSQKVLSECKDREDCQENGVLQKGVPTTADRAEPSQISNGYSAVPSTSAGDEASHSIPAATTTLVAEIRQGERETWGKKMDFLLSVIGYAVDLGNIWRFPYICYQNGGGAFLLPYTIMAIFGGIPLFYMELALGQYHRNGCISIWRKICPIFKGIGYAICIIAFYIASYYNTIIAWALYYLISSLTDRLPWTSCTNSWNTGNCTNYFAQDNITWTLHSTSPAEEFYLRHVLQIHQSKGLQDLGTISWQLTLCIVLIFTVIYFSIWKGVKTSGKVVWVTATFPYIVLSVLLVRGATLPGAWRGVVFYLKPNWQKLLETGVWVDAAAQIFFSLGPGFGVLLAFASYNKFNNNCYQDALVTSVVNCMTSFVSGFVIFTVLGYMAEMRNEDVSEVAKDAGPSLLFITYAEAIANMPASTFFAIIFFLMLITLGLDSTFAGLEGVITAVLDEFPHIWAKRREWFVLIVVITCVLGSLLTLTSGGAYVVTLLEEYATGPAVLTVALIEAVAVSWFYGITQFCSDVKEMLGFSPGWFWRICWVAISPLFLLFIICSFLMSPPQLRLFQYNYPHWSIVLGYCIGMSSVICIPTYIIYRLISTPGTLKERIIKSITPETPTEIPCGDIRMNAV
Sodium-dependent serotonin transporter, sequence (P31652 whole entry): as above

On to `CCC(=O)C1C(c2ccc(I)cc2)CC2CCC1N2C` (centres undefined), for which the Ratio in assay [1] is 0.9. Besides, in assay [2], the half-maximal inhibitory concentration (IC50) was 1.69 nM. This molecule returned an inhibitory constant (Ki) in assay [3] of 1.88 nM.
Consider `CCC(=O)C1C(c2ccc(I)c(F)c2)CC2CCC1N2C` (centres undefined), for which, in assay [1], the Ratio was found to be 0.041. This molecule also displayed a half-maximal inhibitory concentration (IC50) in assay [2] of 0.38 nM. This molecule also had a Ki in assay [3] of 9.07 nM.
`CCC(=O)C1C2CCC(CC1c1ccc(I)cc1)N2` (centres undefined): in assay [1], the Ratio was 0.9. The same molecule came in with an IC50 in assay [2] of 2.2 nM. In assay [3], this molecule showed a Ki of 2.44 nM.
Regarding `CCC(=O)C1C(c2cccc(I)c2)CC2CCC1N2C` (centres undefined), in assay [1], the Ratio came out at 2.9. The half-maximal inhibitory concentration (IC50) in assay [2] was determined as 56.5 nM. The molecule also returned a Ki in assay [3] of 19.7 nM.
On to `CCC(=O)C1C2CCC(CC1c1ccc(I)c(F)c1)N2` (centres undefined), for which the Ratio in assay [1] came to 0.15. For the same molecule, the half-maximal inhibitory concentration (IC50) in assay [2] amounted to 1.08 nM. This molecule also gave an inhibitory constant (Ki) in assay [3] of 7.26 nM.
For `CCC(=O)C1C2CCC(CC1c1cccc(I)c1)N2` (centres undefined), in that order: 1.3, 19.8 nM and 15.7 nM.
Take `CCC(=O)C1C2CCC(CC1c1ccc(I)c(Cl)c1)N2` (centres undefined): in assay [1], the Ratio came out at 0.079. This molecule yielded an IC50 in assay [2] of 0.085 nM. In assay [3], this molecule had an inhibition constant (Ki) of 1.08 nM.
On the same counts, the results for `Cc1ccc(C2CC3CCC(C2C(=O)CC/C=C/I)N3C)cc1` (centres undefined) are 0.26, 13.3 nM and 50.8 nM.
On the same counts, the results for `CCC(=O)C1C(c2ccc(I)c(Cl)c2)CC2CCC1N2C` (centres undefined) are 0.067, 0.077 nM and 1.14 nM.
`Cc1ccc([C@H]2CC3CCC([C@H]2C(=O)C(C/C=C/I)C/C=C/I)N3C)cc1` (some centres undefined) showed a concentration for half-maximal inhibition (IC50) in assay [2] of 47.2 nM. Besides, the Ki in assay [3] is > 1100 nM.
Turning to `CCC(=O)C1C2CCC(CC1c1ccc(/C=C/I)cc1)N2` (centres undefined), the Ratio in assay [1] came out at 83. In addition, in assay [2], the 50% inhibitory concentration (IC50) was found to be 51.3 nM. For the same molecule, in assay [3], affinity was put at a Ki of 0.62 nM.
Turning to `CCC(=O)C1C2CCC(CC1c1ccc(/C=C(\C)I)cc1)N2` (centres undefined), the Ratio in assay [1] amounted to 710. This molecule displayed a 50% inhibitory concentration (IC50) in assay [2] of 401 nM. In assay [3], this molecule displayed a Ki of 0.57 nM.
For the molecule `CCC(=O)C1C2CCC(CC1c1ccc(/C=C(/C)I)cc1)N2` (centres undefined), the Ratio in assay [1] is 510. In assay [2], this molecule registered an IC50 of 66.5 nM. In assay [3], this molecule gave a Ki of 0.13 nM.
With `CCC(=O)C1C(c2ccc(-c3cccn3C)cc2)CC2CCC1N2C/C=C/I` (centres undefined), the Ratio in assay [1] was found to be 270. The IC50 in assay [2] was found to be 753 nM. The molecule also returned a Ki in assay [3] of 2.82 nM.
For `CCC(=O)C1C(c2ccc(-c3cccn3C)cc2)CC2CCC1N2C/C=C\I` (centres undefined), the Ratio in assay [1] was determined as 86. Besides, in assay [2], the IC50 came out at 1120 nM. Moreover, affinity in assay [3] was put at a Ki of 13.1 nM.
